According to PubChem BioAssay AID1259407 (Chemical Carcinogenesis Research Information System (CCRIS), 2018):
“Also recorded” adds a separate entry of the source. The source made the active and inactive calls. The rule behind the calls is not given here.

System: CCRIS mutagenicity, Ames/micronucleus/aberration tests
Test: CCRIS mutagenicity studies

CC/C(=C(/CC)c1ccc(O)cc1)c1ccc(O)cc1
mutagenic call (End Point: IN VITRO CHROMOSOMAL ABERRATIONS, Test System: CHINESE HAMSTER CELL DON (22;XY), Metabolic Activation: NONE): active; positive (ploidy changes) | mutagenic call (End Point: IN VITRO CHROMOSOMAL ABERRATIONS, Test System: HUMAN LYMPHOCYTES, Metabolic Activation: NONE, Method: FISH): active; positive (ploidy changes in chromosomes 1, 9, 16); also recorded: active; positive (ploidy changes in chromosomes 7 and 9) | mutagenic call (End Point: IN VITRO CHROMOSOMAL ABERRATIONS, Test System: HUMAN PERIPHERAL LYMPHOCYTES, Metabolic Activation: NONE): inactive; negative | mutagenic call (End Point: IN VITRO CHROMOSOMAL ABERRATIONS, Test System: SYRIAN HAMSTER EMBRYO (SHE) CELLS, Metabolic Activation: NONE): active; positive (ploidy changes) | mutagenic call (End Point: IN VITRO MICRONUCLEUS, Test System: HUMAN PERIPHERAL LYMPHOCYTES, Metabolic Activation: NONE): active; positive | mutagenic call (End Point: IN VITRO MICRONUCLEUS, Test System: V79 CELLS, Metabolic Activation: NONE): active; positive | mutagenic call (Test System: AMES SALMONELLA TYPHIMURIUM, Strain/Indicator: TA97, Metabolic Activation: HAMSTER LIVER S-9, AROCLOR 1254 (10%), Method: PREINCUBATION): inactive; negative | mutagenic call (Test System: AMES SALMONELLA TYPHIMURIUM, Strain/Indicator: TA97, Metabolic Activation: HAMSTER LIVER S-9, AROCLOR 1254 (30%), Method: PREINCUBATION): inactive; negative | mutagenic call (Test System: AMES SALMONELLA TYPHIMURIUM, Strain/Indicator: TA97, Metabolic Activation: NONE, Method: PREINCUBATION): inactive; negative | mutagenic call (Test System: AMES SALMONELLA TYPHIMURIUM, Strain/Indicator: TA97, Metabolic Activation: NONE, Method: STANDARD PLATE): inactive; negative | mutagenic call (Test System: AMES SALMONELLA TYPHIMURIUM, Strain/Indicator: TA97, Metabolic Activation: RAT LIVER S-9, AROCLOR 1254 (10%), Method: PREINCUBATION): inactive; negative | mutagenic call (Test System: AMES SALMONELLA TYPHIMURIUM, Strain/Indicator: TA97, Metabolic Activation: RAT LIVER S-9, AROCLOR 1254 (30%), Method: PREINCUBATION): inactive; negative | mutagenic call (Test System: AMES SALMONELLA TYPHIMURIUM, Strain/Indicator: TA97, Metabolic Activation: RAT, LIVER, S-9, AROCLOR 1254, Method: STANDARD PLATE): inactive; negative | mutagenic call (Test System: AMES SALMONELLA TYPHIMURIUM, Strain/Indicator: TA97, Metabolic Activation: S-9, Method: STANDARD PLATE): inactive; negative | mutagenic call (Test System: AMES SALMONELLA TYPHIMURIUM, Strain/Indicator: TA98, Metabolic Activation: HAMSTER LIVER S-9, AROCLOR 1254 (10%), Method: PREINCUBATION): inactive; negative | mutagenic call (Test System: AMES SALMONELLA TYPHIMURIUM, Strain/Indicator: TA98, Metabolic Activation: HAMSTER LIVER S-9, AROCLOR 1254 (30%), Method: PREINCUBATION): inactive; negative | mutagenic call (Test System: AMES SALMONELLA TYPHIMURIUM, Strain/Indicator: TA98, Metabolic Activation: NONE, Method: PREINCUBATION): inactive; negative | mutagenic call (Test System: AMES SALMONELLA TYPHIMURIUM, Strain/Indicator: TA98, Metabolic Activation: RAT LIVER S-9, AROCLOR 1254 (10%), Method: PREINCUBATION): inactive; negative | mutagenic call (Test System: AMES SALMONELLA TYPHIMURIUM, Strain/Indicator: TA98, Metabolic Activation: RAT LIVER S-9, AROCLOR 1254 (30%), Method: PREINCUBATION): inactive; negative | mutagenic call (Test System: AMES SALMONELLA TYPHIMURIUM, Strain/Indicator: TA98, Metabolic Activation: RAT, LIVER, S-9, AROCLOR 1254, Method: STANDARD PLATE): inactive; negative | mutagenic call (Test System: AMES SALMONELLA TYPHIMURIUM, Strain/Indicator: TA98, Metabolic Activation: RAT, LIVER, S-9, Method: STANDARD PLATE): inactive; negative | mutagenic call (Test System: AMES SALMONELLA TYPHIMURIUM, Strain/Indicator: TA98, Metabolic Activation: S-9, Method: STANDARD PLATE): inactive; negative | mutagenic call (Test System: AMES SALMONELLA TYPHIMURIUM, Strain/Indicator: TA100, Metabolic Activation: HAMSTER LIVER S-9, AROCLOR 1254 (10%), Method: PREINCUBATION): inactive; negative | mutagenic call (Test System: AMES SALMONELLA TYPHIMURIUM, Strain/Indicator: TA100, Metabolic Activation: HAMSTER LIVER S-9, AROCLOR 1254 (30%), Method: PREINCUBATION): inactive; negative | mutagenic call (Test System: AMES SALMONELLA TYPHIMURIUM, Strain/Indicator: TA100, Metabolic Activation: NONE, Method: PREINCUBATION): inactive; negative | mutagenic call (Test System: AMES SALMONELLA TYPHIMURIUM, Strain/Indicator: TA100, Metabolic Activation: RAT LIVER S-9, AROCLOR 1254 (10%), Method: PREINCUBATION): inactive; negative | mutagenic call (Test System: AMES SALMONELLA TYPHIMURIUM, Strain/Indicator: TA100, Metabolic Activation: RAT LIVER S-9, AROCLOR 1254 (30%), Method: PREINCUBATION): inactive; negative | mutagenic call (Test System: AMES SALMONELLA TYPHIMURIUM, Strain/Indicator: TA100, Metabolic Activation: RAT, LIVER, S-9, AROCLOR 1254, Method: STANDARD PLATE): inactive; negative | mutagenic call (Test System: AMES SALMONELLA TYPHIMURIUM, Strain/Indicator: TA100, Metabolic Activation: RAT, LIVER, S-9, Method: STANDARD PLATE): inactive; negative; toxicity at 100 ug/plate | mutagenic call (Test System: AMES SALMONELLA TYPHIMURIUM, Strain/Indicator: TA100, Metabolic Activation: S-9, Method: STANDARD PLATE): inactive; negative | mutagenic call (Test System: AMES SALMONELLA TYPHIMURIUM, Strain/Indicator: TA102, Metabolic Activation: NONE, Method: STANDARD PLATE): inactive; negative | mutagenic call (Test System: AMES SALMONELLA TYPHIMURIUM, Strain/Indicator: TA102, Metabolic Activation: S-9, Method: STANDARD PLATE): inactive; negative | mutagenic call (Test System: AMES SALMONELLA TYPHIMURIUM, Strain/Indicator: TA1535, Metabolic Activation: HAMSTER LIVER S-9, AROCLOR 1254 (30%), Method: PREINCUBATION): inactive; negative | mutagenic call (Test System: AMES SALMONELLA TYPHIMURIUM, Strain/Indicator: TA1535, Metabolic Activation: HAMSTER LIVER, S-9, AROCLOR 1254 (10%), Method: PREINCUBATION): inactive; negative | mutagenic call (Test System: AMES SALMONELLA TYPHIMURIUM, Strain/Indicator: TA1535, Metabolic Activation: NONE, Method: PREINCUBATION): inactive; negative | mutagenic call (Test System: AMES SALMONELLA TYPHIMURIUM, Strain/Indicator: TA1535, Metabolic Activation: RAT LIVER S-9, AROCLOR 1254 (10%), Method: PREINCUBATION): inactive; negative | mutagenic call (Test System: AMES SALMONELLA TYPHIMURIUM, Strain/Indicator: TA1535, Metabolic Activation: RAT LIVER S-9, AROCLOR 1254 (30%), Method: PREINCUBATION): inactive; negative | mutagenic call (Test System: AMES SALMONELLA TYPHIMURIUM, Strain/Indicator: TA1535, Metabolic Activation: RAT, LIVER, S-9, AROCLOR 1254, Method: STANDARD PLATE): inactive; negative | mutagenic call (Test System: AMES SALMONELLA TYPHIMURIUM, Strain/Indicator: TA1535, Metabolic Activation: RAT, LIVER, S-9, Method: STANDARD PLATE): inactive; negative; toxicity at 50 and 100 ug/plate | mutagenic call (Test System: AMES SALMONELLA TYPHIMURIUM, Strain/Indicator: TA1537, Metabolic Activation: RAT, LIVER, S-9, AROCLOR 1254, Method: STANDARD PLATE): inactive; negative | mutagenic call (Test System: AMES SALMONELLA TYPHIMURIUM, Strain/Indicator: TA1537, Metabolic Activation: RAT, LIVER, S-9, Method: STANDARD PLATE): inactive; negative | mutagenic call (Test System: AMES SALMONELLA TYPHIMURIUM, Strain/Indicator: TA1538, Metabolic Activation: NONE, Method: STANDARD PLATE): inactive; negative | mutagenic call (Test System: AMES SALMONELLA TYPHIMURIUM, Strain/Indicator: TA1538, Metabolic Activation: RAT, LIVER, S-9, AROCLOR 1254, Method: STANDARD PLATE): inactive; negative | mutagenic call (Test System: AMES SALMONELLA TYPHIMURIUM, Strain/Indicator: TA1538, Metabolic Activation: RAT, LIVER, S-9, Method: STANDARD PLATE): inactive; negative | mutagenic call (Test System: E. COLI, Strain/Indicator: WP2 UVRA, Metabolic Activation: HAMSTER, LIVER, S-9, AROCLOR 1254, Method: STANDARD PLATE): inactive; negative | mutagenic call (Test System: E. COLI, Strain/Indicator: WP2 UVRA, Metabolic Activation: HAMSTER, LIVER, S-9, Method: STANDARD PLATE): inactive; negative | mutagenic call (Test System: E. COLI, Strain/Indicator: WP2 UVRA, Metabolic Activation: MOUSE, LIVER, S-9, AROCLOR 1254, Method: STANDARD PLATE): inactive; negative | mutagenic call (Test System: E. COLI, Strain/Indicator: WP2 UVRA, Metabolic Activation: MOUSE, LIVER, S-9, Method: STANDARD PLATE): inactive; negative | mutagenic call (Test System: E. COLI, Strain/Indicator: WP2 UVRA, Metabolic Activation: NONE, Method: STANDARD PLATE): inactive; negative | mutagenic call (Test System: E. COLI, Strain/Indicator: WP2 UVRA, Metabolic Activation: RAT, LIVER, S-9, AROCLOR 1254, Method: STANDARD PLATE): inactive; negative | mutagenic call (Test System: E. COLI, Strain/Indicator: WP2 UVRA, Metabolic Activation: RAT, LIVER, S-9, Method: STANDARD PLATE): inactive; negative | mutagenic call (Test System: MOUSE LYMPHOMA, Strain/Indicator: L5178Y (TK+/+)/OUABAIN, Metabolic Activation: NONE, Method: SUSPENSION/PLATE): inactive; negative | mutagenic call (Test System: MOUSE LYMPHOMA, Strain/Indicator: L5178Y (TK+/+)/OUABAIN, Metabolic Activation: RAT LIVER S-9, AROCLOR 1254, Method: SUSPENSION/PLATE): active; positive | mutagenic call (Test System: MOUSE LYMPHOMA, Strain/Indicator: L5178Y (TK+/-)/TRIFLUROTHYMIDINE, Metabolic Activation: NONE, Method: SUSPENSION/PLATE): inactive; negative | mutagenic call (Test System: MOUSE LYMPHOMA, Strain/Indicator: L5178Y (TK+/-)/TRIFLUROTHYMIDINE, Metabolic Activation: RAT LIVER S-9, AROCLOR 1254, Method: SUSPENSION/PLATE): active; positive | mutagenic call (Test System: MOUSE LYMPHOMA, Strain/Indicator: L5178Y (TK+/TK-), Metabolic Activation: NONE, Method: MICROWELL): inactive; negative | mutagenic call (Test System: MOUSE LYMPHOMA, Strain/Indicator: L5178Y (TK+/TK-), Metabolic Activation: S-9, Method: MICROWELL): active; positive | mutagenic call (Test System: UDS RAT HEPATOCYTES, Strain/Indicator: THY INCORP (18-20 HR), Metabolic Activation: NONE, Method: LIQUID SCINTILLATION COUNTING): inactive; negative | mutagenic call (Test System: UDS RAT HEPATOCYTES, Strain/Indicator: THY INCORP, Metabolic Activation: NONE, Method: LIQUID SCINTILLATION COUNTING): inactive; negative
